# T1: LBD of Nor1 (Homo sapiens, UniProt Q92570)
# T1 construct: GST-LBD of Nor1 was expressed in E. coli and purified; GST (N); made in house; host or cells: E. coli
# T1 sequence (Q92570 394-623 limits assumed): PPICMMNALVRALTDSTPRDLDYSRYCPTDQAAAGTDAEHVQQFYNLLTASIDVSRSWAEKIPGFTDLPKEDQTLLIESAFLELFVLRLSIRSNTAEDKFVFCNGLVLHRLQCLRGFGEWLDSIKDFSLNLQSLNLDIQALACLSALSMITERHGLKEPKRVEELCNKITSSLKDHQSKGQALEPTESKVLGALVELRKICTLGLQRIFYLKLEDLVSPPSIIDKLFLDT
# B1: IL-4: cytokine used to activate eosinophils (protein, UniProt P05112 25-153, looked up)
# Interleukin-4: HKCDITLQEIIKTLNSLTEQKTLCTELTVTDIFAASKNTTEKETFCRAATVLRQFYSHHEKDTRCLGATAQQFHRHKQLIRFLKRLDRNLWGLAGLNSCPVKEANQSTLENFLERLKTIMREKYSKCSS
# Legend:
# [1] = target: T2, full-length NOR-1 (MINOR) (Homo sapiens, UniProt Q92570); test: Mammalian Two Hybrid luciferase reporter, GAL4-full-length Nor1 construct; assay type: cell-based; details: for Full length Nor1-ligand activity RXR(+) / Full length Nor1-ligand activity RXR(−): NIH3T3 cells, luciferase; for Full length Nor1-ligand activity RXR(+): with RXRα; for Full length Nor1-ligand activity RXR(−): without RXRα; for function of enhancing the transcriptional activation ability of NOR-1 (MINOR): luciferase reporter system
# T2 construct: Full length Nor1-; expressed in transfected cells; host or cells: NIH3T3
# T2 sequence (Q92570 whole entry, the tested form may be a part): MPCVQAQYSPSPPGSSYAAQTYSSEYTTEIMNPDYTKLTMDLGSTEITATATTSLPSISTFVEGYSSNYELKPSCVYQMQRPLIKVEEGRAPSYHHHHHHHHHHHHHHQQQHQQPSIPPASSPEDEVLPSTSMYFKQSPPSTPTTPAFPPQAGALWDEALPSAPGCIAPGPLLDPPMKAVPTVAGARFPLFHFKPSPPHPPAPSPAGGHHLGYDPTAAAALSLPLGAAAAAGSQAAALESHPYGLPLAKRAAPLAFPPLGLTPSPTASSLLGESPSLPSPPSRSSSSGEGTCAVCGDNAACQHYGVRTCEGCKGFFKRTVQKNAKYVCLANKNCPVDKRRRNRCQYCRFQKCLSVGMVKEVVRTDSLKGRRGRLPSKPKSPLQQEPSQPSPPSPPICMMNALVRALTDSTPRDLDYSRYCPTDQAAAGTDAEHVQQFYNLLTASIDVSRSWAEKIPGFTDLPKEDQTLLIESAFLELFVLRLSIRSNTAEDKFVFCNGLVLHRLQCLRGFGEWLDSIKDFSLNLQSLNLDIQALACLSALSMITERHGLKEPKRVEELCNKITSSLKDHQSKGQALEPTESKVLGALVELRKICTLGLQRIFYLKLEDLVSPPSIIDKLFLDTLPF
# Procedure: A full-length gene or the ligand-binding site of NOR-1 is inserted into X, and the full-length gene of the retinoic acid X receptor (RXR)α is inserted into Y. These constructs are transfected into NIH3T3 cells, and the activity of induced luciferase is measured.
# Mammalian Two Hybrid system was slightly modified. […] Actually, activity could not be detected for lipid-soluble metabolites existing on the metabolic map of mammals that might be natural ligands of NOR-1 in a screening system wherein only the ligand-binding domain was inserted. A plasmid wherein the full-length gene of NOR-1 (MINOR) had been inserted into pBIND and a luciferase reporter plasmid containing a GAL4 binding site were cotransfected into NIH3T3 cells, and the luciferase activity was measured automatically. By further addition of small molecule substances to this system enables screening of ligands by their transcription enhancing activity.
# NOR-1 (MINOR) expression is induced under conditions where the leukocytes are hyperactive, such as in atopic dermatitis peripheral blood, and apoptosis of cells is very likely to occur as a result of this induced NOR-1 (MINOR) expression. Ligands existing in vivo may exist at sites where nuclear receptors are highly expressed. Therefore, small-molecule lipid-soluble mediators that are expected to be produced under such conditions were added to the assay system as candidate ligands to evaluate their luciferase activity enhancing function. […] Thus, the method established by the present inventors opened a way to discover native ligands and synthetic ligands of NOR-1 (MINOR) by high throughput.
# [2] = tested on: Nor1 gene that completely lacked the LBD region (ΔLBD); test: Mammalian Two Hybrid reporter with LBD deletion mutant of Nor1; assay type: cell-based, human; details: Nor1 lacking the LBD region
# From the text: Therefore, prostaglandin A2 was implicated to function by actually acting on the LBD region of the nuclear receptor.
# LBD of Nor1 = target: T1, LBD of Nor1; test: BIAcor S51 binding to GST-LBD of Nor1; details: BIAcor S51, comparison with GST
# From the text: Glutathione S-transferase (GST) was used as a comparison control and 13,14-Dihydro-15-keto-PGA2 as a negative control.
# In the present invention, as a means for detecting or measuring bound compound, a biosensor utilizing surface plasmon resonance phenomenon may be used. A biosensor (for example, BIAcore, Pharmacia) utilizing the surface plasmon resonance phenomenon allows real-time observation of the interaction between the NOR-1 protein and a test compound as a surface plasmon resonance signal. Therefore, using biosensors such as BIAcore, the binding between the NOR-1 protein and the test compound can be evaluated.
# [3] = tested on: Nor1 expression in peripheral blood eosinophils; test: Nor1 expression induction in cultured peripheral blood eosinophils; assay type: cell-based, human; details: cultured peripheral blood eosinophils from healthy subjects
# From the text: Values collected for beta-actin and GAPDH are shown.
# A large amount of peripheral blood eosinophils were collected from healthy subjects, and cultured in suspension in a petri dish while suppressing their activation. […] The anti-CD30 antibody that has an agonistic activity against eosinophilic CD30 has recently been receiving attention, because it induces apoptosis of eosinophils via a specific intracellular pathway and may serve as a therapeutic agent for asthma.
# Thus, the apoptosis by anti-CD30 antibody accompanied by induction of Nor1 may occur through an eosinophil-specific apoptosis pathway that is different from the conventional pathway.
molecule,measurement,setting,value
O=C(O)CCC/C=C\C[C@H]1C(=O)C=C[C@@H]1/C=C/[C@@H](O)CCc1ccccc1 [17-phenyl trinor Prostaglandin A2],Full length Nor1-ligand activity RXR(+),[1],10 µM
same,Full length Nor1-ligand activity RXR(+),[1]; symbol,∘
same,Full length Nor1-ligand activity RXR(−),[1],10 µM
same,Full length Nor1-ligand activity RXR(−),[1]; symbol,∘
same,function of enhancing the transcriptional activation ability of NOR-1 (MINOR),[1],enhancing the transcriptional activation ability of NOR-1 (MINOR)
O=C(O)CCC/C=C\C[C@H]1C(=O)C=C[C@@H]1/C=C/[C@@H](O)COc1ccccc1 [16-phenoxy tetranor Prostaglandin A2],Full length Nor1-ligand activity RXR(+),[1],30 µM
same,Full length Nor1-ligand activity RXR(+),[1]; symbol,∘
same,Full length Nor1-ligand activity RXR(−),[1],30 µM
same,Full length Nor1-ligand activity RXR(−),[1]; symbol,∘
same,function of enhancing the transcriptional activation ability of NOR-1 (MINOR),[1],enhancing the transcriptional activation ability of NOR-1 (MINOR)
CCCCC[C@H](O)/C=C/[C@H]1C=CC(=O)[C@@H]1C/C=C\CCCC(=O)O [Prostaglandin A2],Full length Nor1-ligand activity RXR(+),[1],10 µM
same,Full length Nor1-ligand activity RXR(+),[1]; symbol,∘
same,Full length Nor1-ligand activity RXR(−),[1],10 µM
same,Full length Nor1-ligand activity RXR(−),[1]; symbol,∘
same,function of enhancing the transcriptional activation ability of NOR-1 (MINOR),[1],enhancing the transcriptional activation ability of NOR-1 (MINOR)
same,transcriptional activity with LBD deletion mutant,[2],remarkable suppression of the transcriptional activity
same,binding to the LBD of Nor1,LBD of Nor1,binding of PGA1 and PGA2 to the LBD of Nor1 was detected
CCCCC[C@H](O)/C=C/[C@H]1C=CC(=O)[C@H]1CCCCCCC(=O)O [8-iso Prostaglandin A1],Full length Nor1-ligand activity RXR(+),[1],10 µM
same,Full length Nor1-ligand activity RXR(+),[1]; symbol,∘
"CCCCCC(=O)CC[C@H]1C=CC(=O)[C@@H]1C/C=C\CCCC(=O)O [13,14-dihydro-15-keto Prostaglandin A2]",function of enhancing the transcriptional activation ability of NOR-1 (MINOR),[1],did not show any activity in the reporter system
same,binding to the LBD of Nor1,LBD of Nor1,did not bind to LBD
CCCCC[C@@](C)(O)/C=C/[C@H]1C=CC(=O)[C@@H]1C/C=C\CCCC(=O)O [15(R)-15-methyl Prostaglandin A2],Full length Nor1-ligand activity RXR(+),[1],10 µM
same,Full length Nor1-ligand activity RXR(+),[1]; symbol,∘
same,Full length Nor1-ligand activity RXR(−),[1],10 µM
same,Full length Nor1-ligand activity RXR(−),[1]; symbol,∘
same,function of enhancing the transcriptional activation ability of NOR-1 (MINOR),[1],enhancing the transcriptional activation ability of NOR-1 (MINOR)
CCCCC[C@H](O)/C=C/[C@H]1C=CC(=O)[C@@H]1CCCCCCC(=O)O [Prostaglandin A1],Full length Nor1-ligand activity RXR(+),[1],10 µM
same,Full length Nor1-ligand activity RXR(+),[1]; symbol,∘
same,Full length Nor1-ligand activity RXR(−),[1],10 µM
same,Full length Nor1-ligand activity RXR(−),[1]; symbol,∘
same,function of enhancing the transcriptional activation ability of NOR-1 (MINOR),[1],enhancing the transcriptional activation ability of NOR-1 (MINOR)
same,binding to the LBD of Nor1,LBD of Nor1,binding of PGA1 and PGA2 to the LBD of Nor1 was detected
IL-5: cytokine used to activate eosinophils,induction of Nor1,[3],did not lead to the induction of Nor1
"CCCCC(C)(C)[C@H](O)/C=C/[C@H]1C=CC(=O)[C@@H]1C/C=C\CCCC(=O)O [16,16-dimethyl Prostaglandin A2]",Full length Nor1-ligand activity RXR(+),[1],5 µM
same,Full length Nor1-ligand activity RXR(+),[1]; symbol,∘
same,Full length Nor1-ligand activity RXR(−),[1],5 µM
same,Full length Nor1-ligand activity RXR(−),[1]; symbol,∘
"CCCCC/C=C\C=C1\C(=O)C=C[C@@H]1C/C=C\CCCC(=O)O [15-dioxy-Δ^12,14-Prostaglandin J2]",Full length Nor1-ligand activity RXR(+),[1],10 µM
same,Full length Nor1-ligand activity RXR(+),[1]; symbol,∘
B1,induction of Nor1,[3],did not lead to the induction of Nor1

# Source: patent US20040214192A1, “Methods of testing for allergic diseases and therapeutic agents for treating same” (Genox Research, Inc., priority 2002, published 2004)
